# In patent US20070060646A1, “Acylhydrazone derivatives and the use thereof in the inhibition, regulation and/or modulation of kinase signal transduction” (priority 2003, published 2007):
row,melting point,SMILES
1,240 to 241 °C,COc1cc(O)ccc1/C=N/NC(=O)Cc1cccc([N+](=O)[O-])c1 [compound 26]
2,178 to 179 °C,COc1cccc(CC(=O)N/N=C/c2cc(Cl)ccc2O)c1 [compound 28]
3,198 to 199 °C,COc1cccc(CC(=O)N/N=C/c2cc([N+](=O)[O-])ccc2O)c1 [compound 29]
4,217 to 218 °C,COc1cc(O)ccc1/C=N/NC(=O)C(O)c1ccccc1 (stereo not shown) [compound 30]
5,214 to 215 °C,COc1cc(O)ccc1/C=N/NC(=O)Cc1cccc(Br)c1 [compound 33]
6,162 to 164 °C,COc1cccc(CC(=O)N/N=C(\C)c2ccc(O)cc2)c1 [compound 34]
7,132 °C,COc1cc(O)ccc1/C=N/NC(=O)Cc1cccc(OS(C)(=O)=O)c1 [compound 35]
8,224 to 225 °C,COc1cc(O)ccc1/C=N/NC(=O)Cc1cc(F)cc(F)c1 [compound 36]
9,203 to 204 °C,Cc1cc(O)ccc1/C=N/NC(=O)Cc1cccc(O)c1 [compound 37]
10,190 to 192 °C,CCOc1cc(O)ccc1/C=N/NC(=O)Cc1cccc(O)c1 [compound 38]
11,194 to 195 °C,COc1cc(O)cc(C)c1/C=N/NC(=O)Cc1cccc(O)c1 [compound 40]
12,213 to 215 °C,COc1cc(O)ccc1/C=N/NC(=O)Cc1ccccc1F [compound 41]

# The next lines start with the compound.
row,SMILES,melting point
1,COc1cccc(CC(=O)N/N=C/c2ccc(O)cc2OC)c1 [compound 4],166 to 167 °C
2,O=C(Cc1ccccc1)N/N=C/c1ccc(O)c(F)c1 [compound 5],207 °C
3,COc1cc(O)ccc1/C=N/NC(=O)Cc1ccc(O)cc1 [compound 6],224 °C
4,COc1cc(O)ccc1/C=N/NC(=O)Cc1ccc(Cl)c(Cl)c1 [compound 7],232 to 233 °C
5,COc1cc(O)ccc1/C=N/NC(=O)Cc1cccc(C)c1 [compound 8],207 to 208 °C
6,COc1cc(O)ccc1/C=N/NC(=O)Cc1ccccc1C [compound 9],119 to 120 °C
7,COc1cc(O)ccc1/C=N/NC(=O)Cc1ccccc1Cl [compound 10],134 to 135 °C
8,COc1cc(O)ccc1/C=N/NC(=O)Cc1cccc(Cl)c1 [compound 11],121 to 122 °C
9,COc1cc(O)ccc1/C=N/NC(=O)Cc1ccc(F)cc1 [compound 12],184 to 185 °C
10,COc1cc(O)ccc1/C=N/NC(=O)Cc1ccc(F)cc1Cl [compound 13],242 to 243 °C
11,COc1cc(O)ccc1/C=N/NC(=O)Cc1cccc(F)c1 [compound 14],111 to 112 °C
12,COc1cccc(CC(=O)N/N=C/c2ccc(O)cc2)c1 [compound 15],162 to 163 °C
13,COc1cccc(CC(=O)N/N=C/c2c(C)cc(O)cc2C)c1 [compound 16],172 to 173 °C
14,COc1cccc(CC(=O)N/N=C/c2ccc(O)c(F)c2)c1 [compound 17],190 to 191 °C
15,COc1cccc(CC(=O)N/N=C(\C)c2ccc(O)cc2OC)c1 [compound 18],160 to 162 °C
16,COc1cc(O)ccc1/C=N/NC(=O)Cc1cc(O)cc(O)c1 [compound 19],246 °C (dec.)
17,O=C(Cc1cccc(F)c1)N/N=C/c1ccc(O)c(F)c1 [compound 20],193 to 194 °C
18,COc1cccc(CC(=O)N/N=C/c2ccc(OC(C)=O)cc2OC)c1 [compound 21],147 to 148 °C
19,COc1cc(O)ccc1/C=N/NC(=O)Cc1cccc(C(F)(F)F)c1 [compound 22],203 to 204 °C
20,COc1cccc(CCC(=O)N/N=C/c2ccc(O)cc2OC)c1 [compound 23],159 to 160 °C
21,COc1cccc(CC(=O)N/N=C/c2ccc(O)cc2O)c1 [compound 24],205 to 206 °C
22,COc1cccc(OCC(=O)N/N=C/c2ccc(O)cc2OC)c1 [compound 25],173 to 174 °C
